Reference: US5958881A, “Composition containing VIP for injection and a method of enhancing visualization of tissues during medical procedures” (priority 1992, dated 1999)
Like-named read-outs stand apart in the source and are kept apart here.

Tests used:
[1] = Procedure: During the period of observation, vital signs (blood pressure and pulse) and symptoms were continuously recorded. The protocol was such that if the blood pressure dropped by more than 20 mm Hg systolic or diastolic or the pulse increased by more than 30 beats per minute for 2 minutes, intravenous saline was to be administered and the study terminated.
[2] = tested on: gastrointestinal motility; details: controlled studies; cited from earlier work
[3] = in vivo; cited from earlier work
gastroduodenal motility = details: cited from earlier work
antroduodenal activity = details: 1 mg IV followed by 2 mg IV over 2 hours; cited from earlier work
[4] = dose dependent; cited from earlier work
opossum duodenum = details: cited from earlier work

Compound: CC[C@H](C)[C@H](NC(=O)[C@H](CO)NC(=O)[C@H](CC(N)=O)NC(=O)[C@H](CC(C)C)NC(=O)[C@H](Cc1ccc(O)cc1)NC(=O)[C@H](CCCCN)NC(=O)[C@H](CCCCN)NC(=O)[C@@H](NC(=O)[C@H](C)NC(=O)[C@H](CCSC)NC(=O)[C@H](CCC(N)=O)NC(=O)[C@H](CCCCN)NC(=O)[C@H](CCCN=C(N)N)NC(=O)[C@H](CC(C)C)NC(=O)[C@H](CCCN=C(N)N)NC(=O)[C@@H](NC(=O)[C@H](Cc1ccc(O)cc1)NC(=O)[C@H](CC(N)=O)NC(=O)[C@H](CC(=O)O)NC(=O)[C@@H](NC(=O)[C@H](Cc1ccccc1)NC(=O)[C@@H](NC(=O)[C@H](C)NC(=O)[C@H](CC(=O)O)NC(=O)[C@H](CO)NC(=O)[C@@H](N)Cc1c[nH]cn1)C(C)C)[C@@H](C)O)[C@@H](C)O)C(C)C)C(=O)N[C@@H](CC(C)C)C(=O)N[C@@H](CC(N)=O)C(N)=O [VIP, vasoactive intestinal peptide]
- need to terminate the study ([1]; criterion: blood pressure drop >20 mm Hg or pulse increase >30 beats per minute for 2 minutes): none of the three patients
- effects on blood pressure and pulse ([1]; first patient, higher dose level (20 ng/kg)): not seen
- effect on blood pressure and pulse ([1]; first patient, initial dose of 5 ng VIP per kg): slight decrease in systolic pressure and increase in pulse
- effect on blood pressure ([1]; gastroparetic dose): without a significant effect
- side effects of nausea and vomiting ([1]; method of the invention): free of the negative side effects of nausea and vomiting
- change in blood pressure or pulse ([1]; second patient, any of the dosages tested (5, 20, 100 ng/kg)): no significant change
- change in blood pressure or pulse ([1]; third patient, any dose of VIP administered): no significant change
- adverse reactions such as nausea or vomiting ([1]; three patients, 5-300 ng/kg IV): None of the three patients

Compound: CN1[C@@H]2CC[C@H]1C[C@@H](OC(=O)C(CO)c1ccccc1)C2 (some centres unmarked) [atropine]
- improvement in patient tolerance or facilitation of endoscopy [2]: failed to demonstrate any beneficial effects
- cardiac arrhythmias [3]: increased risk
- undesirable side effects [3]: blurred vision, headache, and urinary retention

Compound: glucagon
- gastroduodenal motility (gastroduodenal motility; dose-dependent): variable reduction
- minimally effective dose (gastroduodenal motility; reduction in gastroduodenal motility): 0.5 mg
- cycle length and time between contractile activity in the duodenum (antroduodenal activity): significantly increased
- mean pressure period (antroduodenal activity): decreased
- dose at which nausea and vomiting can appear [4]: 1 mg
- effect on duodenum muscle (opossum duodenum): stimulated relaxation
